# Where two headings read alike, the source gives them in different places.
# How the values were obtained:
# [1] = system: P. lilacinum strain 251 spores; assay: spore viability (germination rate on agar) of P. lilacinum spores in carrier fluid after storage at 30° C.; format: cell-based, Purpureocillium lilacinum
# Method: (§1) 3 g of P. lilacinum strain 251 pure spore powder were transferred into a formulation vessel (IKA Type DT-20 mixing vessel with dispersion tool for Ultra Turrax) using a sterile spoon. 12 mL of fluid were added into the respective formulation vessel and dispersed using ultra turrax tube drive control for 1 min at 3000 rpm; change direction after 30 sec. After this 2.8 mL were transferred in four sample bottles (Wheaton Serum vial, Type I) leaving little headspace and closed tight using crimpneck caps (Macherey—Nagel type N 13) Afterwards all sample bottles were transferred to an incubator set at 30° C. and stored for a given time.
# (§2) In regular intervals a sample was retrieved from the storage location and analyzed for spore viability. Therefore the original samples were thoroughly homogenized. Aliquots of 0.25 g or […] of each sample are transferred into 50 mL falcon tubes. The tubes were filled up to 25 g using a sterile aqueous solution containing 2% Tween 80 and homogenized by vortexing to achieve the first dilution step (1:100 dilution). This dilution is used for further dilution and spotting on agar.
# (§3) For evaluation of spore germination rate prepare a 1:30000 dilution based on the 1:100 dilution achieved by multiple automated dilution (pipetting robot, 96 well plate). Afterwards 12×12 cm agar plates are taken and spotted with 10 times […] of each sample using an automated 12-Channel pipet. Wait until liquid is soaked up by agar and transfer agar plate to an incubator and incubate at 25° C. for 17 hours. Open the plate and place it under the microscope. Randomly choose one area per spot and record the number of germinated and non-germinated spores that are within the designated field. At least 200 spores per sample need to be evaluated. If needed count more than one field per spot.
# [2] = system: Isaria fumosorosea spores; assay: spore viability of Isaria fumosorosea spores in carrier fluid after storage at 30° C., Method 1 (germination on agar); format: cell-based
# Method: as §1, with “Method 1: 1.5 g” for “3 g”, “of Isaria fumosorosea” for “of P. lilacinum strain 251”, “spoon. 13.5” for “spoon. 12”
# as §2
# For evaluation of spore germination rate a 1:15000 dilution based on the 1:100 dilution achieved by multiple automated dilution (pipetting robot, 96 well plate) was prepared. Afterwards 12×12 cm agar plates were taken and spotted with 10 times 5 μL of each sample using an automated 12-Channel pipet. After all liquid is soaked up by agar the agar plates were incubated at 23° C. for 16 hours.
# [3] = system: Beauveria Bassiana spores; assay: spore viability (germination rate on agar) of Beauveria bassiana spores in carrier fluid after storage at 30° C.; format: cell-based
# Method: as §1, with “1.5 g” for “3 g”, “of Beauveria Bassiana” for “of P. lilacinum strain 251”, “spoon. 13.5” for “spoon. 12”
# as §2
# as §3, with “1:15000” for “1:30000”, “20°” for “25°”
# [4] = system: Isaria fumosorosea spores; assay: spore viability of Isaria fumosorosea spores in carrier fluid after storage, Method 2 (flow cytometry); format: cell-based
# Method: Method 2: 0.5 g of Isaria fumosoresea pure spore powder were transferred into an Erlenmeyer flask using a sterile spoon. 24.5 mL of fluid were dispersed using Ultra-Turrax (IKA; Type T 25 D) for 1 min at 3,000 rpm. After this, 2.0 mL were transferred in 20 sample bottles (Wheaton Serum vial, Type I) leaving little headspace and closed tight using crimpneck caps (Macherey—Nagel type N 13). Afterwards all sample bottles were transferred to an incubator set at 30° C. and stored for a given time.
# In regular intervals a sample was retrieved from the storage location and analyzed for spore viability. For this purpose, the original samples were thoroughly homogenized. Aliquots of 0.5 g of each sample were transferred into 100 mL-Erlenmeyer flask. The flasks were filled up to 50 g using a sterile aqueous solution containing 0.1% Break Thru® 5240 (Evonik, Industries) and homogenized on a magnetic stirrer (Thermo Fisher Scientific: Cimarec™) at least for 15 min with 750 rpm to achieve the first dilution step (1:100 dilution). This dilution was used for further dilution.
# Not all samples mixed well or mixed at all in 0.1% Break Thru 5240. For these samples, 500 μL Neo-wett (Kwizda Agro GmbH) and/or a small amount (knife tip) Metaupon®-OMT (LEUNA Tenside GmbH) were also added to the aqueous solution.
# After homogenization 1 mL were transferred into a 1.5 mL tube and were centrifuged for 15 min at 14,000 rpm (Thermo Fisher Scientific, Type Megafuge 8R). The supernatant (=upper phase) was discarded by using a pipette. The tubes were filled up to 1 mL using a sterile aqueous solution containing 0.1% Neo-wett and homogenized by vortexing.
# To assess fungal viability, a method based on flow cytometry was used.
# [5] = system: Penicillium bilaii (ATCC 20851) spores; assay: spore viability (germination rate on agar) of Penicillium bilaii spores in carrier fluid after storage at 30° C.; format: cell-based
# Method: as §1, with “1.5 g” for “3 g”, “of Penicillium bilaii (ATCC 20851)” for “of P. lilacinum strain 251”, “spoon. 13.5” for “spoon. 12”
# as §2
# as §3, with “1:15000” for “1:30000”, “20°” for “25°”
# [6] = P. lilacinum strain 251 in the liquid, day 1
# [7] = I. fumosorosea, Method 1, day 1
# [8] = Method 1, storage at 30° C., 27 d
# [9] = Method 1, storage at 30° C., 210 d
Compound,"spore viability [%] at day 1 [1, 6]","spore viability [%] after 2 w (12-15 d) ([1]; storage at 30° C., 12-15 d)","spore viability [%] after 1 m (27-28 d) ([1]; storage at 30° C., 27-28 d)","spore viability [%] after 2 m (51-55 d) ([1]; storage at 30° C., 51-55 d)","spore viability [%] at day 1 [2, 7]","spore viability [%] after 1 m (27 d) [2, 8]","spore viability [%] after 7 m (210 d) [2, 9]","spore viability [%] at day 1 ([3]; Beauveria bassiana, day 1)","spore viability [%] after 5 w (35 d) ([3]; storage at 30° C., 35 d)",spore viability [%] after 1 m (27-28 d) [1],spore viability [%] after 2 m (51-55 d) [1],spore viability [%] after 2 w (12-15 d) [1],spore viability [%] after 7 m (210 d) [1],spore viability [%] at day 1 [1],spore viability [%] after 1 m (27 d) [2],spore viability [%] at day 1 [2],spore viability [%] after 1 m (27 d) [4],spore viability [%] after 2 w (~14 d) [4],spore viability [%] at day 1 [4],spore viability [%] at day 1 [3],also measured
"CCCCOCCOCCO [Butylcarbitol, diethylenglycol monobutylether, reference compound]",92.7%,62.1%,10.8%,3.2%,19.1%,0.5%,2.4%,53.3%,0.8%,–,–,–,–,–,–,–,–,–,–,–,"spore viability [%] after 7 m (210 d) ([1]; storage at 30° C., 210 d): 0.6%; decline in spore viability at day 1 and after storage ([1]; text summary of Table I, fluids not within the scope of the invention): steep decline in spore viability; decline in spore viability after storage under given conditions ([3]; Table III, fluids not within the scope of the invention): steep decline in spore viability"
Polyethyleneglycol-400 monooleate [Radiasurf 7403],–,–,–,–,–,–,–,–,–,98.9%,93.7%,98.3%,78.3%,98.6%,76.2%,94.0%,92.0%,86.0%,89.0%,81.4%,spore viability [%] after 2 w (14 d) [3]: 77.3%; spore viability [%] after 5 w (35 d) [3]: 72.3%; spore viability after storage for 3w or longer at 30° C. [3]: ≥ 50%; spore viability [%] 3 m@30° C. (83-85 d) [5]: 61.8%; spore viability [%] 6 w@30° C. (41-43 d) [5]: 66.8%; spore viability [%] initial (1-2 d) [5]: 78.1%
Polyethyleneglycol-400 dioleate [Radiasurf 7442],–,–,–,–,–,–,–,–,–,98.2%,96.8%,96.5%,88.3%,98.7%,72.1%,89.4%,66.3%,69.6%,87.4%,85.9%,spore viability [%] after 3 w (21 d) [3]: 33.2%; spore viability [%] 3 m@30° C. (83-85 d) [5]: 76.5%; spore viability [%] 6 w@30° C. (41-43 d) [5]: 91%; spore viability [%] initial (1-2 d) [5]: 96.7%
"COC(C)COC(C)COC(C)CO (stereo not drawn) [Dowanol TPM, Tripropylene Glycol monomethyl ether]",85.4%,94.3%,95.6%,84.5%,88.0%,65.4%,52.6%,63.9%,15.5%,–,–,–,–,–,–,–,–,–,–,–,"spore viability [%] at day 1 ([4]; I. fumosorosea, Method 2, day 1): 82.0%; spore viability [%] after 1 m (27 d) ([4]; Method 2, storage at 30° C., 27 d): 59.0%; spore viability [%] after 2 w (14 d) ([3]; storage at 30° C., 14 d): 19.0%; spore viability [%] initial (1-2 d) ([5]; Penicillium bilaii, 1-2 d): 67.2%; spore viability [%] 6 w@30° C. (41-43 d) ([5]; storage at 30° C., 41-43 d): 7.6%; spore viability [%] 3 m@30° C. (83-85 d) ([5]; storage at 30° C., 83-85 d): 2.8%"
Polyethyleneglycol-200 monooleate [Radiasurf 7402],–,–,–,–,–,–,–,–,–,64.8%,34.7%,83.6%,–,96.7%,11.6%,92.5%,15.8%,20.5%,89.9%,–,spore viability [%] after 7 m (210 d) [2]: 1.1%

# Source: patent US20220015355A1, “NOVEL CARRIER FLUIDS FOR LIQUID FUNGAL SPORE FORMULATIONS” (priority 2018, published 2022)
